Results on 15 compounds are retold here after US20140005163A1 (NOVARTIS AG, priority 2010, published 2014).

Test [1] concerns the target T1, PI3K gamma (Homo sapiens, UniProt P48736).
T1 construct: His tag (C); made in house; host or cells: baculovirus (pVL1393); Tn5 or TiniPro insect cells; construct from Roger Williams lab, MRC LMB
The test can be described thus: PI3K gamma kinase assay (Kinase-Glo luminescence). The test is classed as biochemical. The method, boiled down:
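PI3Kγ (150 nM) reaction run 120 min at room temperature with phosphatidylinositol substrate (10 μg/mL) and ATP (1 μM) in Tris pH 7.5 buffer containing MgCl2, NaCl, CHAPS and DTT. Remaining ATP detected by Kinase-Glo luminescence; 8 concentrations per compound, IC50 from 4-parameter curve fitting.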
In general terms: In Kinase-Glo more light means more ATP remaining.

The target of test [2] is T2, PI3K alpha (Homo sapiens, UniProt P42336).
T2 construct: p85(iSH2) fusion partner (see partner chain) (N); His tag (C); made in house; host or cells: baculovirus; Tn5 (Trichoplusia ni) or TiniPro insect cells
T2 sequence (P42336 with tags, fused parts or gaps limits assumed): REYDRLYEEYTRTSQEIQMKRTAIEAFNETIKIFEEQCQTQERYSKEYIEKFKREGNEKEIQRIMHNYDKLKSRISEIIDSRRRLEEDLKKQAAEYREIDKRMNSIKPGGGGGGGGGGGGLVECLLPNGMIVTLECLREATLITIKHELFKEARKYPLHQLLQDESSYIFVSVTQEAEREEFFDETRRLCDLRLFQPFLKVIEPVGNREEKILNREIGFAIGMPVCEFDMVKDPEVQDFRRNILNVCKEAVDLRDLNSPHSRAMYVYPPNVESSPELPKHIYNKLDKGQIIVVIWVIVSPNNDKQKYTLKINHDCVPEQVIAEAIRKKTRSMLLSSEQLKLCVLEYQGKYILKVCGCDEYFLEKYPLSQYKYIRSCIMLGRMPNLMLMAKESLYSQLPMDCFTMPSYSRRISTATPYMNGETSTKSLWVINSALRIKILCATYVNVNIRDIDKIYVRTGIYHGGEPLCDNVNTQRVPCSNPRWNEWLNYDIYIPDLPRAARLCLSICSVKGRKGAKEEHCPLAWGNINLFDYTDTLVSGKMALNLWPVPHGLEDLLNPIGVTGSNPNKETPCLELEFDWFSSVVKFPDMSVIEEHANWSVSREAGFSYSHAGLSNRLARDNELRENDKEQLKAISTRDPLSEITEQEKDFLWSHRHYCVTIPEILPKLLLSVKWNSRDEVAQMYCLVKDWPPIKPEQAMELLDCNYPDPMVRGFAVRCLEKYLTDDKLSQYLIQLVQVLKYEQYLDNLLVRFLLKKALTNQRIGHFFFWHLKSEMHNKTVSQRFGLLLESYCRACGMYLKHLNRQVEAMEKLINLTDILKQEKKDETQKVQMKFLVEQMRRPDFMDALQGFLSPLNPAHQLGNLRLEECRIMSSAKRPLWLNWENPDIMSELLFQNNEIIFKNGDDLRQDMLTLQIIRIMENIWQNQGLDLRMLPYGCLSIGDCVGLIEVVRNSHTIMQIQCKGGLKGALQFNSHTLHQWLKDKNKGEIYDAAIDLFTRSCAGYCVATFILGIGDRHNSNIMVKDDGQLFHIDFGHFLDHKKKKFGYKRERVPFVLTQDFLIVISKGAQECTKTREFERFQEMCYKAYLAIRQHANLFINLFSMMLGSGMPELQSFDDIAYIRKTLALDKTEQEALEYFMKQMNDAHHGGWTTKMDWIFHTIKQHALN
The test can be described thus: PI3K alpha kinase assay (Kinase-Glo luminescence). It is filed as biochemical. The method, boiled down:
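Compounds are titrated at 8 concentrations and mixed with PI3Kα protein (EMV B1075, 10 nM) in phosphatidylinositol (10 μg/mL). ATP at 1 μM starts the 60-minute room-temperature reaction, which is stopped with Kinase-Glo before luminescence reading. Four-parameter curve fitting gives IC50.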

In test [3] the test system is PKB Ser473 phosphorylation in Rat1-myr-HA-p110 beta cells. The test is described as follows: Reverse protein array assay, PKB Ser473 phosphorylation in Rat1-myr-p110 beta cells. Particulars: 0.5 h, pAkt Ser473, 30 minutes incubation, read-out: p-PKB IC50. The test is classed as cell-based. The method, boiled down:
(§1)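 Compound exposure lasted 30 min in Rat1 cells bearing membrane-targeted HA-p110 isoforms, using 8 serial concentrations. Arrayed lysates, each spotted at four dilutions, gave relative fluorescence signals for phospho-Ser473 PKB.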

In test [4] the test system is PKB Ser473 phosphorylation in Rat1-myr-HA-p110 delta cells. The test can be described thus: Reverse protein array assay, PKB Ser473 phosphorylation in Rat1-myr-p110 delta cells. It is filed as cell-based. The following applies: read-out: p-PKB IC50. The method, boiled down:
as §1

Test [5] addresses T3, PI3K delta (Homo sapiens, UniProt O00329).
T3 construct: for the full-length p110-d subunit are generated and fused by overlapping PCR; p85(iSH2) fusion partner (see partner chain) (N); His tag (C); made in house; host or cells: baculovirus; Tn5 (Trichoplusia ni) or TiniPro insect cells
The test is described as follows: PI3K delta kinase assay (Kinase-Glo luminescence). The test is classed as biochemical. The method, boiled down:
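ATP 1 μM, PI 10 μg/mL, PI3Kδ construct BV1060 10 nM (final); 10 mM Tris pH 7.5, 3 mM MgCl2, 50 mM NaCl, 0.05% CHAPS, 1 mM DTT; 60 min RT; Kinase-Glo stop, luminescence.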

Test [6] addresses T4, PI3K beta (Homo sapiens, UniProt P42338).
T4 construct: for the full-length p110-b subunit are generated and fused by overlapping PCR; p85(iSH2) fusion partner (see partner chain) (N); His tag (C); made in house; host or cells: baculovirus; Tn5 (Trichoplusia ni) or TiniPro insect cells
The test is described as follows: PI3K beta kinase assay (Kinase-Glo luminescence). The test is classed as biochemical. The method, boiled down:
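IC50 is derived by four-parameter logistic curve fitting of Kinase-Glo luminescence, which measures ATP left after a 60 min room-temperature reaction. Conditions are 25 nM His-tagged p85(iSH2)-p110β, 1 μM ATP and 10 μg/mL bovine liver phosphatidylinositol.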

A word on the IC50: it is the concentration that inhibits the measured activity by half.

T1 sequence (P48736 144-1102 limits assumed): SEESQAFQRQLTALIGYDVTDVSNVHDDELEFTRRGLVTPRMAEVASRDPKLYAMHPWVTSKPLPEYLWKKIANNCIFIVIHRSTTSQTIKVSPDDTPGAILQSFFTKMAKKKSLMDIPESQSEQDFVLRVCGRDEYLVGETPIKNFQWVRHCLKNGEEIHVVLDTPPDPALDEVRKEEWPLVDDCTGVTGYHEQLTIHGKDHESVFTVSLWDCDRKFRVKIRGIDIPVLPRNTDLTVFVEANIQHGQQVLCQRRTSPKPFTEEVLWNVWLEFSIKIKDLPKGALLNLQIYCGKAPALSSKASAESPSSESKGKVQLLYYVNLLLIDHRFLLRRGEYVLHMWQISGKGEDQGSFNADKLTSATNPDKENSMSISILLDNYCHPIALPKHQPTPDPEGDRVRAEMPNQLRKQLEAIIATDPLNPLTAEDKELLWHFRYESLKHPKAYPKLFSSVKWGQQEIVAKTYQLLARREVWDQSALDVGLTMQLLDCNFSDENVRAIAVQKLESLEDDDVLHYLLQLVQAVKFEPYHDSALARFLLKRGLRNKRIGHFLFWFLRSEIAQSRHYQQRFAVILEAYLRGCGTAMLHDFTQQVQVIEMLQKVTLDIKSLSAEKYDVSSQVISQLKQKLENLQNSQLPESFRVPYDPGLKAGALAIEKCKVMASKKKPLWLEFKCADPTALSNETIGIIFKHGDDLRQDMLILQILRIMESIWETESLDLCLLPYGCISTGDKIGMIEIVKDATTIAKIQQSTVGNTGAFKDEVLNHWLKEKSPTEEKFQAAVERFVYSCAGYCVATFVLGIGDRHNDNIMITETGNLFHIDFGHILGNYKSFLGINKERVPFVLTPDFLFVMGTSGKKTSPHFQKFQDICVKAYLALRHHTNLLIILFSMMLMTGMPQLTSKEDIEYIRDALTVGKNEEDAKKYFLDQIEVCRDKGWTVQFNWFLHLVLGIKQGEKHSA
T4 sequence (P42338 with tags, fused parts or gaps limits assumed): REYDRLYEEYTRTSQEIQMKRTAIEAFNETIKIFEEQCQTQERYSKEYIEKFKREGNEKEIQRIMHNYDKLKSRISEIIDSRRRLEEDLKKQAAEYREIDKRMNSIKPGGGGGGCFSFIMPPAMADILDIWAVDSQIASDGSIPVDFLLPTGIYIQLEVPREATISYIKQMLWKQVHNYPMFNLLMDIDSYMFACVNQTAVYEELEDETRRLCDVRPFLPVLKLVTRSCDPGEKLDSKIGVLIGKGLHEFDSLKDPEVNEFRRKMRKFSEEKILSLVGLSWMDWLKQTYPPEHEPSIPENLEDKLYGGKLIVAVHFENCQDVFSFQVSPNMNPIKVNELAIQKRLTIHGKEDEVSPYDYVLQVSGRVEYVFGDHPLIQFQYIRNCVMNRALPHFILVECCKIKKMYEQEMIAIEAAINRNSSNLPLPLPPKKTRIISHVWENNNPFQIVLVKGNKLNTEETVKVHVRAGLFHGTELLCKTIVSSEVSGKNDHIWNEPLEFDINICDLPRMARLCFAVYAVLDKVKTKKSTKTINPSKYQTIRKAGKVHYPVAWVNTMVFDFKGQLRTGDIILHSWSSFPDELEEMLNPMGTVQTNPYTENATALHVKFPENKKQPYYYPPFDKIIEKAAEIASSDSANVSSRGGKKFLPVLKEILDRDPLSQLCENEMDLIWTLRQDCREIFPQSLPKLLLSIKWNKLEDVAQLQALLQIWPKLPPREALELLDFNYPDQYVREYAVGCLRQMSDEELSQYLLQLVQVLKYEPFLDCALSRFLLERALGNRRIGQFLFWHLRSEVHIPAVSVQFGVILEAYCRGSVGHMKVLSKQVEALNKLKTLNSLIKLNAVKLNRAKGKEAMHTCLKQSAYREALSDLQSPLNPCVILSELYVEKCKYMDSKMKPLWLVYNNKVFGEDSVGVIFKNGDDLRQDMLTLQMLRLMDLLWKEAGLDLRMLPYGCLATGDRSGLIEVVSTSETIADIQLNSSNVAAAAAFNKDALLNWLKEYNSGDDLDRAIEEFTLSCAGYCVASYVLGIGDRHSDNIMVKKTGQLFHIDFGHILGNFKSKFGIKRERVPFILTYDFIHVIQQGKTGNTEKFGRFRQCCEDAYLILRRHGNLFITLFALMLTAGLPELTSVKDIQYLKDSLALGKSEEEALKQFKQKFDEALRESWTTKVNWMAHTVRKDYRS
T3 sequence (O00329 with tags, fused parts or gaps limits assumed): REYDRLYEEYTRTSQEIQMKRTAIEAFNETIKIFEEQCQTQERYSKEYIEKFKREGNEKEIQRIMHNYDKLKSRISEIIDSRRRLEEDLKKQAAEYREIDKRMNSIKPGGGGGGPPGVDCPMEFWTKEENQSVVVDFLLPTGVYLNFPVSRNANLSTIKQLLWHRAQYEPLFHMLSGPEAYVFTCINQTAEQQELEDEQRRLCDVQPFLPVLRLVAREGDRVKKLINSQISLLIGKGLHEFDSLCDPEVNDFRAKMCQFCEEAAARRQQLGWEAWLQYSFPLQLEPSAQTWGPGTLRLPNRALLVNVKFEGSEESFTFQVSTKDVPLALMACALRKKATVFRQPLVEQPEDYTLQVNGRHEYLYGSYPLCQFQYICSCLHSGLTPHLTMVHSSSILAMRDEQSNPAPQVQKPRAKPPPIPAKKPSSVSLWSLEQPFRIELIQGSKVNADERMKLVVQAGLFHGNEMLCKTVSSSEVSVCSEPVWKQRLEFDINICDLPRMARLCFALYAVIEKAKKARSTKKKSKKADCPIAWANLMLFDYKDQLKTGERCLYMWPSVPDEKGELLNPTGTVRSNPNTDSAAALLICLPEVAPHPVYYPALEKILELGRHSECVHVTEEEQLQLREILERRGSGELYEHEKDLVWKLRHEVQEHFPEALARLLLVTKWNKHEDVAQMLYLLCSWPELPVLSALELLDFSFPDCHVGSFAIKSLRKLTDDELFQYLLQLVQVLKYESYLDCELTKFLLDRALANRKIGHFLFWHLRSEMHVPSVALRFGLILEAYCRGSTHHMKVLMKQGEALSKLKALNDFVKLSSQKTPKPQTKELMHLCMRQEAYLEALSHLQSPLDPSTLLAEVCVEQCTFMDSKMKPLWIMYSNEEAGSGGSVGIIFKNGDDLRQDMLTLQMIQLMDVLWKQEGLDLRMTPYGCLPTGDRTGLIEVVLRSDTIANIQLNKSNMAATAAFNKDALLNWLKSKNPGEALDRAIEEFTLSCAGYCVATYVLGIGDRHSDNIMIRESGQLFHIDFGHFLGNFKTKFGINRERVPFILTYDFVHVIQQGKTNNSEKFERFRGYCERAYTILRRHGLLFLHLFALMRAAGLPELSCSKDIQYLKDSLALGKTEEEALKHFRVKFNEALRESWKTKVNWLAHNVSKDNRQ

For `Cc1nn(C(C)C)cc1-n1c(=O)n(C)c2cnc3ccc(-c4ccc(N(C)C)nc4)cc3c21` [Example 4.1, 8-(6-Dimethylamino-pyridin-3-yl)-1-(1-isopropyl-3-methyl-1H-pyrazol-4-yl)-3-methyl-1,3-dihydro-imidazo[4,5-c]quinolin-2-one], the IC50 in test [1] was 0.407 µM; in test [2], 0.06 µM; in test [3] it was 0.019 µM; in test [4], 0.059 µM; in test [5], 0.039 µM; in test [6], 0.762 µM.

As to `CCOc1ccc(-c2ccc3ncc4c(c3c2)n(-c2cn(C)nc2C)c(=O)n4C)cc1OC` [Example 29.3, 1-(1,3-Dimethyl-1H-pyrazol-4-yl)-8-(4-ethoxy-3-methoxy-phenyl)-3-methyl-1,3-dihydro-imidazo[4,5-c]quinolin-2-one], the IC50 in test [1] was 0.169 µM; in test [2], 0.011 µM; in test [3] it was 0.015 µM; in test [4], 0.038 µM; in test [5], 0.04 µM; in test [6], 0.144 µM.

Take `Cc1nn(C)cc1-n1c(=O)n(C)c2cnc3ccc(-c4ccc5c(c4)CC(=O)N5)cc3c21` [Example 49, 1-(1,3-Dimethyl-1H-pyrazol-4-yl)-3-methyl-8-(2-oxo-2,3-dihydro-1H-indol-5-yl)-1,3-dihydro-imidazo[4,5-c]quinolin-2-one]: the IC50 in test [1] was found to be 0.278 µM; in test [2], 0.047 µM; in test [3], 0.152 µM; in test [4], 0.442 µM; in test [5], 0.106 µM; in test [6], 0.506 µM.

For the compound `COCc1cncc(-c2ccc3ncc4c(c3c2)n(-c2cn(C)nc2C)c(=O)n4C)c1` [Example 54.1, 1-(1,3-Dimethyl-1H-pyrazol-4-yl)-8-(5-methoxymethyl-pyridin-3-yl)-3-methyl-1,3-dihydro-imidazo[4,5-c]quinolin-2-one], the IC50 in test [1] amounted to 0.157 µM; in test [2], 0.017 µM; in test [3], 0.092 µM; in test [4], 0.112 µM; in test [5] it was 0.019 µM; in test [6], 0.028 µM.

As to `Cc1ncc(-c2ccc3ncc4c(c3c2)n(-c2cn(C)nc2C)c(=O)n4C)cc1O` [Example 185.1, 1-(1,3-Dimethyl-1H-pyrazol-4-yl)-8-(5-hydroxy-6-methyl-pyridin-3-yl)-3-methyl-1,3-dihydro-imidazo[4,5-c]quinolin-2-one], the IC50 in test [2] came to 0.005 µM; in test [3], 0.046 µM; in test [4] it was 0.326 µM; in test [5], 0.009 µM; in test [6], 0.009 µM.

With `CCn1cc(-n2c(=O)n(C)c3cnc4ccc(-c5cnc(NC)nc5OC)cc4c32)c(C)n1` [Example 236, 1-(1-Ethyl-3-methyl-1H-pyrazol-4-yl)-8-(4-methoxy-2-methylamino-pyrimidin-5-yl)-3-methyl-1,3-dihydro-imidazo[4,5-c]quinolin-2-one], the IC50 stood at 0.015 µM in test [2]; 0.006 µM in test [3]; 0.013 µM in test [4]; 0.007 µM in test [5]; 0.09 µM in test [6].

In the case of `Cc1nn(C)cc1-n1c(=O)n(C)c2cnc3ccc(-c4cncc(C(C)(C)C#N)c4)cc3c21` [Example 220.1, 2-{5-[1-(1,3-Dimethyl-1H-pyrazol-4-yl)-3-methyl-2-oxo-2,3-dihydro-1H-imidazo[4,5-c]quinolin-8-yl]-pyridin-3-yl}-2-methyl-propionitrile], the IC50 is 0.009 µM in test [2]; 0.018 µM in test [3]; 0.023 µM in test [4]; 0.008 µM in test [5]; 0.023 µM in test [6].

For `COCc1cc(-c2ccc3ncc4c(c3c2)n(-c2cn(C)nc2C)c(=O)n4C)cnc1OC` [Example 202, 1-(1,3-Dimethyl-1H-pyrazol-4-yl)-8-(6-methoxy-5-methoxymethyl-pyridin-3-yl)-3-methyl-1,3-dihydro-imidazo[4,5-c]quinolin-2-one], the IC50 came out at 0.011 µM in test [2]; 0.029 µM in test [3]; 0.028 µM in test [4]; 0.006 µM in test [5]; 0.013 µM in test [6].

In the case of `CCNc1cc(-c2ccc3ncc4c(c3c2)n(-c2c(C)nn(CC(=O)N(C)C)c2C)c(=O)n4C)cnc1C` [Example 87.5, 2-{4-[8-(5-Ethylamino-6-methyl-pyridin-3-yl)-3-methyl-2-oxo-2,3-dihydro-imidazo[4,5-c]quinolin-1-yl]-3,5-dimethyl-pyrazol-1-yl}-N,N-dimethyl-acetamide], the IC50 in test [2] turned out to be 0.043 µM; in test [3], 0.407 µM; in test [4], 0.634 µM; in test [5], 0.035 µM; in test [6], 0.335 µM.

With `Cc1ncc(-c2ccc3ncc4c(c3c2)n(-c2cn(C)nc2C)c(=O)n4C)cc1OC(CF)CF` [Example 189, 1-(1,3-Dimethyl-1H-pyrazol-4-yl)-8-[5-(2-fluoro-1-fluoromethyl-ethoxy)-6-methyl-pyridin-3-yl]-3-methyl-1,3-dihydro-imidazo[4,5-c]quinolin-2-one], the IC50 was 0.004 µM in test [2]; less than 0.005 µM in test [3]; 0.005 µM in test [4]; 0.006 µM in test [5]; 0.005 µM in test [6].

As to `Cc1nn(C)cc1-n1c(=O)n(C)c2cnc3ccc(-c4cnc(CO)c(OC(C)C)c4)cc3c21` [Example 190, 1-(1,3-Dimethyl-1H-pyrazol-4-yl)-8-(6-hydroxymethyl-5-isopropoxy-pyridin-3-yl)-3-methyl-1,3-dihydro-imidazo[4,5-c]quinolin-2-one], the IC50 came out at 0.013 µM in test [2]; 0.016 µM in test [3]; 0.054 µM in test [4]; 0.011 µM in test [5]; 0.036 µM in test [6].

On to `CCn1cc(-n2c(=O)n(C)c3cnc4ccc(-c5cnc(N)c(COC)c5)cc4c32)c(C)n1` [Example 168.2, 8-(6-Amino-5-methoxymethyl-pyridin-3-yl)-1-(1-ethyl-3-methyl-1H-pyrazol-4-yl)-3-methyl-1,3-dihydro-imidazo[4,5-c]quinolin-2-one], for which the IC50 in test [2] stood at 0.023 µM; in test [3] it was 0.018 µM; in test [4], 0.019 µM; in test [5] it was 0.011 µM; in test [6], 0.068 µM.

On to `COCc1ncc(-c2ccc3ncc4c(c3c2)n(-c2cn(C(C)C)nc2C)c(=O)n4C)cc1OC` [Example 195.2, 1-(1-Isopropyl-3-methyl-1H-pyrazol-4-yl)-8-(5-methoxy-6-methoxymethyl-pyridin-3-yl)-3-methyl-1,3-dihydro-imidazo[4,5-c]quinolin-2-one], for which the IC50 in test [2] worked out at 0.037 µM; in test [3], 0.189 µM; in test [4], 0.343 µM; in test [5], 0.035 µM; in test [6] it was 0.163 µM.

On to `Cc1ncc(-c2ccc3ncc4c(c3c2)n(-c2cn(C)nc2C)c(=O)n4C)cc1N(C)C` [Example 164, 8-(5-Dimethylamino-6-methyl-pyridin-3-yl)-1-(1,3-dimethyl-1H-pyrazol-4-yl)-3-methyl-1,3-dihydro-imidazo[4,5-c]quinolin-2-one], for which the half-inhibitory concentration (IC50) in test [2] is 0.005 µM; in test [3], less than 0.005 µM; in test [4], 0.007 µM; in test [5], 0.004 µM; in test [6], 0.011 µM.

As for `CNc1ncc(-c2ccc3ncc4c(c3c2)n(-c2c(C)nn(C)c2C)c(=O)n4C)cc1F` [Example 141.1, 8-(5-Fluoro-6-methylamino-pyridin-3-yl)-3-methyl-1-(1,3,5-trimethyl-1H-pyrazol-4-yl)-1,3-dihydro-imidazo[4,5-c]quinolin-2-one], the IC50 is 0.817 µM in test [2]; 0.162 µM in test [3]; 0.403 µM in test [4]; 0.044 µM in test [5]; 0.469 µM in test [6].
